In patent US8987287B2, “Spirocyclic morphinans and their use” (Purdue Pharma L.P., priority 2012, dated 2015):
Read-outs that look alike come from different tables or passages of the source.

How the values were obtained:
κ opioid receptor [1] = target: T1, κ opioid receptor (Homo sapiens (Human), UniProt P41145); experiment: κ-opioid receptor radioligand ([3H]-U69,593) dose-displacement binding assay; conditions: binding affinity
Protocol: κ-Opioid Receptor Binding Assay Procedures: Membranes from recombinantHEK-293 cells, CHO or U-2 OS cells expressing the recombinant human κ opioid receptor (κ) were prepared by lysing cells in ice cold hypotonic buffer (2.5 mM MgCl2, 50 mM HEPES, pH 7.4) (10 mL/10 cm dish) followed by homogenization with a tissue grinder/Teflon pestle. Membranes were collected by centrifugation at 30,000×g for 15 min at 4° C. and pellets were resuspended in hypotonic buffer to a final concentration of 1-3 mg/mL. Protein concentrations were determined using the BioRad protein assay reagent with bovine serum albumen as standard. Aliquots of κ receptor membranes were stored at −80° C.
Radioligand dose displacement assays used 0.4 nM [^3H]-U69,593 (GE Healthcare, Piscataway, N.J.; 40 Ci/mmole) with 15 μg membrane protein (recombinant κ opioid receptor expressed in HEK 293 cells; in-house prep) in a final volume of 200 μl binding buffer (5% DMSO, 50 mM Trizma base, pH 7.4). Non-specific binding was determined in the presence of 10 μM unlabeled naloxone or U69,593. All reactions were performed in 96-well polypropylene plates for 1 hour at a temperature of about 25° C. Binding reactions were terminated by rapid filtration onto 96-well Unifilter GF/C filter plates (Perkin Elmer, Shelton, Conn.) presoaked in 0.5% polyethylenimine (Sigma). Harvesting was performed using a 96-well tissue harvester (Perkin Elmer, Shelton, Conn.) followed by five filtration washes with 200 μl ice-cold binding buffer. Filter plates were subsequently dried at 50° C. for 1-2 hours. Fifty μl/well scintillation cocktail (Perkin Elmer, Shelton, Conn.) was added and plates were counted in a Packard Top-Count for 1 min/well.
(§1) In TABLE 1, binding affinity of certain Compounds of the Invention to the μ-, δ- and κ-opioid receptors was determined as described above.

κ opioid receptor [2] = target: T1, κ opioid receptor; experiment: κ-opioid receptor [35S]GTPγS functional assay, HEK-293 or CHO cells; format: biochemical; conditions: for Emax: relative to U69,593, HEK-293 or CHO cells
Protocol: κ-Opioid Receptor Functional Assay Procedures: Functional [^35S]GTPγS binding assays were conducted as follows. κ opioid receptor membrane solution was prepared by sequentially adding final concentrations of 0.026 μg/μl κ membrane protein (in-house), 10 μg/mL saponin, 3 μM GDP and 0.20 nM [^35S]GTPγS to binding buffer (100 mM NaCl, 10 mM MgCl2, 20 mM HEPES, pH 7.4) on ice. The prepared membrane solution (190 μl/well) was transferred to 96-shallow well polypropylene plates containing 10 μl of 20× concentrated stock solutions of agonist prepared in DMSO. Plates were incubated for 30 min at a temperature of about 25° C. with shaking. Reactions were terminated by rapid filtration onto 96-well Unifilter GF/B filter plates (Perkin Elmer, Shelton, Conn.) using a 96-well tissue harvester (Packard) and followed by three filtration washes with 200 μl ice-cold binding buffer (10 mM NaH2PO4, 10 mM Na2HPO4, pH 7.4). Filter plates were subsequently dried at 50° C. for 2-3 hours. Fifty μl/well scintillation cocktail (Perkin Elmer, Shelton, Conn.) was added and plates were counted in a Packard Top-Count for 1 min/well.
κ-Opioid Receptor Functional Data: κ GTP EC50 is the concentration of a compound providing 50% of the maximal response for the compound at a κ receptor.
κ GTP Emax (%) is the maximal effect elicited by a compound relative to the effect elicited by U69,593.
(§2) In TABLE 2, activity response of certain Compounds of the Invention to the μ-, δ- and κ-opioid receptors was determined as described above for functional assays using HEK-293 or CHO cells.

μ-opioid receptor [3] = target: T2, μ-opioid receptor (Homo sapiens (Human), UniProt P35372); experiment: μ-opioid receptor radioligand ([3H]-diprenorphine) dose-displacement binding assay; conditions: binding affinity
Protocol: μ-Opioid Receptor Binding Assay Procedures: Radioligand dose-displacement binding assays for μ-opioid receptors used 0.3 nM [^3H]-diprenorphine (Perkin Elmer, Shelton, Conn.), with […] membrane protein/well in a final volume of 500 μl binding buffer (10 mM MgCl2, 1 mM EDTA, 5% DMSO, 50 mM HEPES, pH 7.4). Reactions were carried out in the absence or presence of increasing concentrations of unlabeled naloxone. All reactions were conducted in 96-deep well polypropylene plates for 2 hours at room temperature. Binding reactions were terminated by rapid filtration onto 96-well Unifilter GF/C filter plates (Perkin Elmer, Shelton, Conn.), presoaked in 0.5% polyethylenimine using a 96-well tissue harvester (Perkin Elmer, Shelton, Conn.) followed by performing three filtration washes with 500 μl of ice-cold binding buffer. Filter plates were subsequently dried at 50° C. for 2-3 hours. BetaScint scintillation cocktail (Perkin Elmer, Shelton, Conn.) was added (50 μl/well), and plates were counted using a Packard Top-Count for 1 min/well. The data were analyzed using the one-site competition curve fitting functions in GraphPad PRISM™ v. 3.0 or higher (San Diego, Calif.), or an in-house function for one-site competition curve-fitting.
as §1

μ-opioid receptor [4] = target: T2, μ-opioid receptor; experiment: μ-opioid receptor [35S]GTPγS functional assay, HEK-293 or CHO cells; format: biochemical; conditions: for Emax: relative to DAMGO, HEK-293 or CHO cells
Protocol: μ-Opioid Receptor Functional Assay Procedures: [^35S]GTPγS functional assays were conducted using freshly thawed μ-receptor membranes prepared in-house from a cell line expressing recombinant μ opioid receptor in a HEK-293, CHO or U-2 OS cell background, or purchased from a commercial source (Perkin Elmer, Shelton, Conn.; or DiscovRx, Fremont, Calif.). Assay reactions were prepared by sequentially adding the following reagents to binding buffer (100 mM NaCl, 10 mM MgCl2, 20 mM HEPES, pH 7.4) on ice (final concentrations indicated): membrane protein (0.026 mg/mL), saponin ([…]), GDP ([…]) and [^35S]GTPγS (0.20 nM; Perkin Elmer, Shelton, Conn.). The prepared membrane solution (190 μl/well) was transferred to 96-shallow well polypropylene plates containing 10 μl of 20× concentrated stock solutions of the agonist [D-Ala^2, N-methyl-Phe^4 Gly-ol^5]-enkephalin (DAMGO) prepared in dimethyl sulfoxide (DMSO). Plates were incubated for 30 min at about 25° C. with shaking. Reactions were terminated by rapid filtration onto 96-well Unifilter GF/B filter plates (Perkin Elmer, Shelton, Conn.) using a 96-well tissue harvester (Perkin Elmer, Shelton, Conn.) followed by three filtration washes with 200 μl of ice-cold wash buffer (10 mM NaH2PO4, 10 mM Na2HPO4, pH 7.4). Filter plates were subsequently dried at 50° C. for 2-3 hours. BetaScint scintillation cocktail (Perkin Elmer, Shelton, Conn.) was added (50 μl/well) and plates were counted using a Packard Top-Count for 1 min/well. Data were analyzed using the sigmoidal dose-response curve fitting functions in GraphPad PRISM v. 3.0, or an in-house function for non-linear, sigmoidal dose-response curve-fitting.
μ-Opioid Receptor Functional Data: μ GTP EC50 is the concentration of a compound providing 50% of the maximal response for the compound at a μ-opioid receptor.
μ GTP Emax (%) is the maximal effect elicited by a compound relative to the effect elicited by DAMGO, a standard μ agonist. Generally, the μ GTP Emax (%) value measures the efficacy of a compound to treat or prevent pain or other Conditions.
as §2

μ-opioid receptor [5] = target: T2, μ-opioid receptor; experiment: μ-opioid receptor [35S]GTPγS functional assay, U-2 OS cells; format: biochemical; conditions: for Emax: relative to DAMGO, U-2 OS cells
κ opioid receptor [6] = target: T1, κ opioid receptor; experiment: κ-opioid receptor [35S]GTPγS functional assay, U-2 OS cells; format: biochemical; conditions: for Emax: relative to U69,593, U-2 OS cells
[7] = read-out: Opioid Receptor Ki (nM) κ
[8] = read-out: Opioid Receptor Ki (nM) μ
[9] = bound given in μM, read-out: Opioid Receptor Ki κ

Row | SMILES | Ki (κ opioid receptor [1]; [7]) [nM] | EC50 (κ opioid receptor [2]) [nM] | Emax (κ opioid receptor [2]) [%] | Ki (μ-opioid receptor [3]; [8]) [nM] | EC50 (μ-opioid receptor [4]) [nM] | Emax (μ-opioid receptor [4]) [%] | Ki (κ opioid receptor [1]; [9]) [nM] | Ki (μ-opioid receptor [3]; bound given in μM, read-out: Opioid Receptor Ki μ) [nM] | EC50 (μ-opioid receptor [5]) [nM] | Emax (μ-opioid receptor [5]) [%] | EC50 (κ opioid receptor [6]) [nM] | Emax (κ opioid receptor [6]) [%]
1 | COc1ccc2c(c1)[C@]13CCN(CC4CC4)[C@H](C2)[C@]1(O)CC[C@@]1(C3)NC(=O)NC1=O [Compound 2, (4bR,4′S,8aS,9R)-11-(cyclopropylmethyl)-8a-hydroxy-3-methoxy-5,7,8,8a,9,10-hexahydrospiro[9,4b-(epiminoethano)phenanthrene-6,4′-imidazolidine]-2′,5′-dione] | 130 ± 22.7 | 2500 ± 556 | 63 ± 1.53 | 9050 ± 895 | 1950 ± 37.7 | 31.3 ± 2.4 |  |  |  |  |  | 
2 | O=C1NC(=O)[C@@]2(CC[C@H]3[C@H]4Cc5ccc(O)cc5[C@@]3(CCN4CC3CC3)C2)N1 [Compound 7, (4bS,4′S,8aR,9R)-11-(cyclopropylmethyl)-3-hydroxy-5,7,8,8a,9,10-hexahydrospiro[9,4b-(epiminoethano)phenanthrene-6,4′-imidazolidine]-2′,5′-dione] | 0.23 ± 0.05 | 3.68 ± 0.99 | 86.3 ± 2.19 | 8.39 ± 2.72 | 3.76 ± 0.41 | 37 ± 4.04 |  |  |  |  |  | 
3 | COc1ccc2c(c1)[C@]13CCN(Cc4ccccc4)[C@H](C2)[C@]1(O)CC[C@@]1(C3)NC(=O)NC1=O [Compound 11, (4bR,4′S,8aS,9R)-11-benzyl-8a-hydroxy-3-methoxy-5,7,8,8a,9,10-hexahydrospiro[9,4b-(epiminoethano)phenanthrene-6,4′-imidazolidine]-2′,5′-dione] |  |  |  |  |  |  | > 20000 | > 20000 |  |  |  | 
4 | COc1ccc2c(c1)[C@]13CCN[C@H](C2)[C@]1(O)CC[C@@]1(C3)NC(=O)NC1=O [Compound 12, (4bR,4′S,8aS,9R)-8a-hydroxy-3-methoxy-5,7,8,8a,9,10-hexahydrospiro[9,4b-(epiminoethano)phenanthrene-6,4′-imidazolidine]-2′,5′-dione] |  |  |  | 14900 |  |  | > 20000 |  |  |  |  | 
5 | CCN1C(=O)NC(=O)[C@@]12CC[C@@]1(O)[C@H]3Cc4ccc(O)cc4[C@@]1(CCN3CC1CC1)C2 [Compound 49, (4S,4b′R,8a′S,9′R)-11′-(cyclopropylmethyl)-3-ethyl-3′,8a′-dihydroxy-8′,8a′,9′,10′-tetrahydro-5′H,7′H-spiro[imidazolidine-4,6′-[9,4b](epiminoethano)phenantrene]-2,5-dione] | 0.47 ± 0.026 | 6.63 ± 2.21 | 59.3 ± 4.06 | 2.28 ± 0.62 | > 20000 | 1 |  |  | > 20000 | 2.5 | 1.82 ± 0.098 | 111 ± 3.51
6 | CN1C(=O)NC(=O)[C@@]12CC[C@@]1(O)[C@H]3Cc4ccc(O)cc4[C@@]1(CCN3CC1CC1)C2 [Compound 63, (4S,4b′R,8a′S,9′R)-11′-(cyclopropylmethyl)-3′,8a′-dihydroxy-3-methyl-8′,8a′,9′,10′-tetrahydro-5′H,7′H-spiro[imidazolidine-4,6′-[9,4b](epiminoethano)phenantrene]-2,5-dione] | 0.3 ± 0.041 | 3.53 ± 0.43 | 74.7 ± 1.45 | 0.86 ± 0.11 | > 20000 | 1 |  |  | 0.97 ± 0.053 | 14.3 ± 0.67 | 0.69 ± 0.025 | 108
